Counter-ions that a name gives are not always drawn.

The target in assay [1] is RAF kinases (Homo sapiens, UniProt P15056). In words: biochemical.
For assay [2], the target named is RAF kinases (Homo sapiens, UniProt P04049). Nature of the assay: biochemical.
For assay [3], the system named is MEK1 phosphorylation in the A375 human melanoma cell line. In words: cells. Conditions: A-375, read-out: pMEK IC50.
In a further assay the test system is A375 cells. Nature of the assay: cells. The settings on record: Homo sapiens, A-375, read-out: A375 Viability EC50.

RAF kinases (Homo sapiens, UniProt P15056), sequence (P15056 whole entry): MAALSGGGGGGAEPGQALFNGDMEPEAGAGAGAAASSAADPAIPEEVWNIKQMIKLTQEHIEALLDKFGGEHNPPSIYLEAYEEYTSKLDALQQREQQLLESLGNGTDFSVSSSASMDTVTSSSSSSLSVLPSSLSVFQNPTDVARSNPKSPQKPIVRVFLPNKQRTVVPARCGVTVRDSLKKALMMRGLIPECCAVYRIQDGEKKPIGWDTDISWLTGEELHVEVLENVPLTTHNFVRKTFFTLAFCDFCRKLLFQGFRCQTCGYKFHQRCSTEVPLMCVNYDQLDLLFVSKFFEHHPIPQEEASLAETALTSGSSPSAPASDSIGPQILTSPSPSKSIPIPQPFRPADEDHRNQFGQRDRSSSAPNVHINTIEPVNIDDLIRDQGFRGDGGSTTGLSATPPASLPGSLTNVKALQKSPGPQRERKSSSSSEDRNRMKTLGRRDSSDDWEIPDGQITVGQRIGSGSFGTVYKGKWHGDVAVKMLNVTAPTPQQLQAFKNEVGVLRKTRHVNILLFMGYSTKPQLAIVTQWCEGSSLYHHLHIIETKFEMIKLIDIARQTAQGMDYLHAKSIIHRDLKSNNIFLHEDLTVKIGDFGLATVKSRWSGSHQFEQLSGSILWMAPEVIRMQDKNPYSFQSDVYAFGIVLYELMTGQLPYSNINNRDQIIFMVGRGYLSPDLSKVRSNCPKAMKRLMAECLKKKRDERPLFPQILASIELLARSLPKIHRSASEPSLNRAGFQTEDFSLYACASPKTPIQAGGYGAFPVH
RAF kinases (Homo sapiens, UniProt P04049), sequence (P04049 whole entry): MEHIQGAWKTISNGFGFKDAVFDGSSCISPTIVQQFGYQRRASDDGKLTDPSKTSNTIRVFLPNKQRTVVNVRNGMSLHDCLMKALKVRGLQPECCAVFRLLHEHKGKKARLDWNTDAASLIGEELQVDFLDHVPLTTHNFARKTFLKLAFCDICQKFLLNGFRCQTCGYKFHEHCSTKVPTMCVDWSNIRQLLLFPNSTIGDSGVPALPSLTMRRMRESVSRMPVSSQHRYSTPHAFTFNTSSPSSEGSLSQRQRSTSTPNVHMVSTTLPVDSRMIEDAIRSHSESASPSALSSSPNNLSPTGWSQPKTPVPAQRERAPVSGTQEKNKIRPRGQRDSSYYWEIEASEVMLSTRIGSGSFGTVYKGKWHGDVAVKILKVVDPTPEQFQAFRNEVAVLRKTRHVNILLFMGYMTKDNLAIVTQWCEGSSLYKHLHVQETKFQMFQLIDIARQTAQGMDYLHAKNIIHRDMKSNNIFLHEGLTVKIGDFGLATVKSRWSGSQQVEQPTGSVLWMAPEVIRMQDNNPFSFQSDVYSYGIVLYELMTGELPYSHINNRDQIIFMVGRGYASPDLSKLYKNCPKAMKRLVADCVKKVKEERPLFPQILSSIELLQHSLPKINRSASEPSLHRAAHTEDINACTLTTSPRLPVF

What is called Kd is the equilibrium constant for the complex coming apart. A word on the IC50: it is the concentration that gives 50% inhibition. Broadly, the EC50 is the concentration that produces a half-maximal response. Consider `COc1cc2ncnc(Sc3cccc(NC(=O)Nc4cc(C(C)(C)C)on4)c3)c2cc1OCCN1CCN(C)CC1` [Ex 67, 1-(5-tert-butylisoxazol-3-yl)-3-(3-(7-methoxy-6-(2-(4-methylpiperazin-1-yl)ethoxy)quinazolin-4-ylthio)phenyl)urea], for which the Kd on RAF kinases [1] and at RAF kinases [2] was 250 to 500 nM throughout. Also, the IC50 in assay [3] is under 250 nM. In the assay on A375 cells, the EC50 was over 1000 nM.
Regarding `COc1cc2ncnc(Oc3cccc(NC(=O)Nc4cc(C(F)(F)F)ncn4)c3)c2cc1OC` [Ex 146, 1-(3-(6,7-dimethoxyquinazolin-4-yloxy)phenyl)-3-(6-(trifluoromethyl)pyrimidin-4-yl)urea], the Kd at RAF kinases [1] and on RAF kinases [2] was 250 to 500 nM each time. In addition, in assay [3], the IC50 is over 1000 nM. For the same compound, the concentration for a half-maximal effect (EC50) in the assay with A375 cells was over 1000 nM.
Take `CCOc1cccc(NC(=O)Nc2cccc(Oc3ncnc4cc(OC)c(OC)cc34)c2)c1` [Ex 179, 1-(3-(6,7-dimethoxyquinazolin-4-yloxy)phenyl)-3-(3-ethoxyphenyl)urea]: the Kd on RAF kinases [1] lay within 500 to 1000 nM; on RAF kinases [2], 250 to 500 nM. The IC50 in assay [3] was over 1000 nM. Further, the 50% effective concentration (EC50) in the assay with A375 cells is over 1000 nM.
Take `COc1cc2ncnc(Sc3cccc(NC(=O)Nc4cc(C(C)(C)C)on4)c3)c2cc1OC` [Ex 46, 1-(5-tert-butylisoxazol-3-yl)-3-(3-(6,7-dimethoxyquinazolin-4-ylthio)phenyl)urea]: the equilibrium dissociation constant (Kd) on RAF kinases [1] was 500 to 1000 nM; on RAF kinases [2], 250 to 500 nM. Also, the IC50 in assay [3] was under 250 nM. Also, the EC50 in the assay with A375 cells is 250 to 500 nM.
In the case of `COc1cc2c(Oc3cccc(NC(=O)Nc4cc(C(C)(C)C)on4)c3)ncnc2cc1O[C@@H]1CCN(C)C1` [Ex 99, (R)-1-(5-tert-butylisoxazol-3-yl)-3-(3-(6-methoxy-7-(1-methylpyrrolidin-3-yloxy)quinazolin-4-yloxy)phenyl)urea mono acetate], the Kd at RAF kinases [1] and at RAF kinases [2] was 250 to 500 nM throughout. In assay [3], the half-inhibitory concentration (IC50) was in the range of 250 to 500 nM. Also, in the assay on A375 cells, the EC50 is over 1000 nM.
Take `COCCOc1cc2ncnc(Oc3cccc(NC(=O)Nc4cc(C(C)(C)C)on4)c3)c2cc1OCCOC` [Ex 12, 1-{3-[6,7-bis(2-methoxyethoxy)quinazolin-4-yloxy]phenyl}-3-(5-tert-butylisoxazol-3-yl)urea hydrochloride]: the Kd at RAF kinases [1] fell in the range of 500 to 1000 nM; on RAF kinases [2], 250 to 500 nM. Further, the IC50 in assay [3] was under 250 nM. In addition, the EC50 in the assay on A375 cells lay within 250 to 500 nM.
Take `COc1cc2c(Sc3cccc(NC(=O)Nc4cc(C(C)(C)C)on4)c3)ncnc2cc1OCCCN1CCN(S(C)(=O)=O)CC1` [Ex 77, 1-(5-tert-butylisoxazol-3-yl)-3-(3-(6-methoxy-7-(3-(4-(methylsulfonyl)piperazin-1-yl)propoxy)quinazolin-4-ylthio)phenyl)urea]: the Kd on RAF kinases [1] and at RAF kinases [2] was 500 to 1000 nM in each case. Further, in assay [3], the half-maximal inhibitory concentration (IC50) is under 250 nM. In addition, the EC50 in the assay with A375 cells lay within 250 to 500 nM.
Take `COc1cc2ncnc(Sc3cccc(NC(=O)Nc4cc(C(C)(C)C)nn4C)c3)c2cc1OC` [Ex 157, 1-(3-tert-butyl-1-methyl-1H-pyrazol-5-yl)-3-(3-(6,7-dimethoxyquinazolin-4-ylthio)phenyl)urea]: the Kd on RAF kinases [1] fell in the range of 500 to 1000 nM; at RAF kinases [2] it was 250 to 500 nM. In addition, in assay [3], the IC50 was under 250 nM. For the same compound, in the assay with A375 cells, the EC50 was over 1000 nM.
As for `CC(C)(C)c1cc(NC(=O)Nc2cccc(Sc3ncnc4ccc(OCCCN5CCS(=O)(=O)CC5)cc34)c2)no1` [Ex 90, 1-(5-tert-butyl-isoxazol-3-yl)-3-(3-{6-[3-(1,1-dioxo-thiomorpholin-4-yl)-propoxy]-quinazolin-4-ylsulfanyl}-phenyl)-urea], the Kd on RAF kinases [1] lay within 500 to 1000 nM; at RAF kinases [2], 250 to 500 nM. Moreover, the concentration for half-maximal inhibition (IC50) in assay [3] was under 250 nM. Further, the EC50 in the assay on A375 cells is over 1000 nM.
Turning to `COc1cc2c(Oc3cccc(NC(=O)Nc4cc(C(C)(C)C)on4)c3)ncnc2cc1O[C@H]1CCN(C)C1` [Ex 97, (S)-1-(5-tert-butylisoxazol-3-yl)-3-(3-(6-methoxy-7-(1-methylpyrrolidin-3-yloxy)quinazolin-4-yloxy)phenyl)urea mono acetate], the Kd at RAF kinases [1] was 250 to 500 nM; at RAF kinases [2], 500 to 1000 nM. Also, in assay [3], the IC50 is 250 to 500 nM. The half-maximal effective concentration (EC50) with A375 cells was over 1000 nM.
In the case of `COc1cc2ncnc(Oc3cccc(NC(=O)Nc4cc(C(C)(C)C)on4)c3)c2cc1OC[C@H](O)CN1CCN(C)CC1` [Ex 112, (R)-1-(5-tert-butylisoxazol-3-yl)-3-(3-(6-(2-hydroxy-3-(4-methylpiperazin-1-yl)propoxy)-7-methoxyquinazolin-4-yloxy)phenyl)urea], the Kd on RAF kinases [1] lay within 500 to 1000 nM; on RAF kinases [2] it was 250 to 500 nM. In addition, in assay [3], the half-maximal inhibitory concentration (IC50) was in the range of 250 to 500 nM. Also, the EC50 with A375 cells was in the range of 500 to 1000 nM.
As to `COc1cccc(NC(=O)Nc2cccc(Oc3ncnc4cc(OC)c(OC)cc34)c2)c1` [Ex 178, 1-(3-(6,7-dimethoxyquinazolin-4-yloxy)phenyl)-3-(3-methoxyphenyl)urea], the Kd at RAF kinases [1] lay within 500 to 1000 nM; at RAF kinases [2] it was 250 to 500 nM. Further, the IC50 in assay [3] is over 1000 nM. Moreover, the concentration for a half-maximal effect (EC50) in the assay on A375 cells was over 1000 nM.
`COc1cc2c(Oc3cccc(NC(=O)Nc4cc(C(C)(C)C)on4)c3)ncnc2cc1OCCN1CCN(CCO)CC1` [Ex 38, 1-(5-tert-butylisoxazol-3-yl)-3-(3-(7-(2-(4-(2-hydroxyethyl)piperazin-1-yl)ethoxy)-6-methoxyquinazolin-4-yloxy)phenyl)urea]: the Kd on RAF kinases [1] and at RAF kinases [2] was 250 to 500 nM throughout. Moreover, in assay [3], the half-maximal inhibitory concentration (IC50) is under 250 nM. The EC50 in the assay on A375 cells fell in the range of 250 to 500 nM.
Regarding `COc1cc2ncnc(Oc3cccc(NC(=O)Nc4cc(C(C)(F)F)no4)c3)c2cc1OC` [Ex 152, 1-(3-(1,1-difluoroethyl)isoxazol-5-yl)-3-(3-(6,7-dimethoxyquinazolin-4-yloxy)phenyl)urea], the Kd at RAF kinases [1] and at RAF kinases [2] was 250 to 500 nM throughout. Besides, the IC50 in assay [3] lay in the range of 500 to 1000 nM. Besides, the EC50 with A375 cells was in the range of 500 to 1000 nM.
Consider `COc1cc2c(Oc3cccc(NC(=O)Nc4cc(C(C)(C)C)on4)c3)ncnc2cc1OCCN1CCS(=O)(=O)CC1` [Ex 39, 1-(5-tert-butyl-isoxazol-3-yl)-3-(3-{7-[2-(1,1-dioxo-116-thiomorpholin-4-yl)-ethoxy]-6-methoxy-quinazolin-4-yloxy}-phenyl)-urea], for which the Kd at RAF kinases [1] and on RAF kinases [2] was 250 to 500 nM in each case. In addition, in assay [3], the half-maximal inhibitory concentration (IC50) was under 250 nM. Further, in the assay on A375 cells, the EC50 was under 250 nM.
For the compound `COc1cc2ncnc(Sc3cccc(NC(=O)Nc4cc(C(C)(C)C)on4)c3)c2cc1OCCN1CCN(CCO)CC1` [Ex 68, 1-(5-tert-butylisoxazol-3-yl)-3-(3-(6-(2-(4-(2-hydroxyethyl)piperazin-1-yl)ethoxy)-7-methoxyquinazolin-4-ylthio)phenyl)urea], the Kd on RAF kinases [1] and at RAF kinases [2] was 250 to 500 nM throughout. In addition, the IC50 in assay [3] was under 250 nM. Moreover, in the assay with A375 cells, the EC50 lay within 500 to 1000 nM.
As to `COc1cc2ncnc(Sc3cccc(NC(=O)Nc4cc(C(C)(C)C)on4)c3)c2cc1OCCCN1CCN(C)CC1` [Ex 59, 1-(5-tert-butylisoxazol-3-yl)-3-(3-(7-methoxy-6-(3-(4-methylpiperazin-1-yl)propoxy)quinazolin-4-ylthio)phenyl)urea], the Kd at RAF kinases [1] and at RAF kinases [2] was 250 to 500 nM throughout. Further, the IC50 in assay [3] was under 250 nM. The EC50 with A375 cells was over 1000 nM.
On to `COc1cc2c(Sc3cccc(NC(=O)Nc4cc(C(C)(C)C)on4)c3)ncnc2cc1OCCN1CCN(S(C)(=O)=O)CC1` [Ex 81, 1-(5-tert-butylisoxazol-3-yl)-3-(3-(6-methoxy-7-(2-(4-(methylsulfonyl)piperazin-1-yl)ethoxy)quinazolin-4-ylthio)phenyl)urea], for which the dissociation constant (Kd) at RAF kinases [1] and at RAF kinases [2] was 500 to 1000 nM throughout. For the same compound, the IC50 in assay [3] is under 250 nM. In addition, in the assay with A375 cells, the concentration for a half-maximal effect (EC50) lay within 250 to 500 nM.
Consider `CC(C)(C)c1cc(NC(=O)Nc2cccc(Oc3ncnc4cc5c(cc34)OCCO5)c2)no1` [Ex 14, 1-(5-tert-butylisoxazol-3-yl)-3-[3-(7,8-dihydro-[1,4]dioxino[2,3-g]quinazolin-4-yloxy)phenyl]urea hydrochloride], for which the values for the dissociation constant Kd at RAF kinases [1] and at RAF kinases [2] were 500 to 1000 nM and 250 to 500 nM, respectively. In addition, the IC50 in assay [3] lay within 500 to 1000 nM. Moreover, the EC50 with A375 cells is over 1000 nM.
Turning to `COc1cc2ncnc(Sc3cccc(NC(=O)Nc4cc(C(C)(C)C)on4)c3)c2cc1OCCCN1CCN(S(C)(=O)=O)CC1` [Ex 60, 1-(5-tert-butylisoxazol-3-yl)-3-(3-(7-methoxy-6-(3-(4-(methylsulfonyl)piperazin-1-yl)propoxy)quinazolin-4-ylthio)phenyl) urea], the values for the Kd on RAF kinases [1] and at RAF kinases [2] were 500 to 1000 nM and 250 to 500 nM, respectively. In addition, in assay [3], the IC50 was under 250 nM. In the assay with A375 cells, the EC50 was in the range of 250 to 500 nM.
With `COc1cc2ncnc(Oc3cccc(NC(=O)Nc4cc(C(C)(C)C)on4)c3)c2cc1OCCCN1CCC(CO)CC1` [Ex 24, 1-(5-tert-butylisoxazol-3-yl)-3-(3-(6-(3-(4-(hydroxymethyl)piperidin-1-yl)propoxy)-7-methoxyquinazolin-4-yloxy)phenyl)urea], the Kd on RAF kinases [1] and at RAF kinases [2] was 500 to 1000 nM each time. Moreover, the IC50 in assay [3] is under 250 nM. In addition, the EC50 with A375 cells fell in the range of 500 to 1000 nM.
Consider `COc1cc2c(Sc3cccc(NC(=O)Nc4cc(C(C)(C)C)on4)c3)ncnc2cc1OCCN1CCN(C)CC1` [Ex 83, 1-(5-tert-butylisoxazol-3-yl)-3-(3-(6-methoxy-7-(2-(4-methylpiperazin-1-yl)ethoxy)quinazolin-4-ylthio)phenyl)urea], for which the Kd on RAF kinases [1] and at RAF kinases [2] was 250 to 500 nM in each case. Besides, the IC50 in assay [3] is under 250 nM. Also, the concentration for a half-maximal effect (EC50) with A375 cells was over 1000 nM.
On to `COc1cc2ncnc(Oc3cccc(NC(=O)Nc4cc(C(C)(C)C)on4)c3)c2cc1OCCCN1CCN(S(C)(=O)=O)CC1` [Ex 25, 1-(5-tert-butylisoxazol-3-yl)-3-(3-(7-methoxy-6-(3-(4-(methylsulfonyl)piperazin-1-yl)propoxy)quinazolin-4-yloxy)phenyl)urea], for which the Kd on RAF kinases [1] and at RAF kinases [2] was 250 to 500 nM each time. The IC50 in assay [3] was under 250 nM. In addition, the EC50 with A375 cells was under 250 nM.

Source of the values: patent US8618289B2 (Ambit Biosciences Corporation, priority 2008, dated 2013).
